Experimental data published in the NIST ThermoML archive (doi:10.1016/j.fluid.2016.02.031).

Assay: refractive index (Na D-line) (dimensionless); xn = mol fraction of the nth substance listed
Details: 100 kPa, Liquid, Standard Abbe refractometry

c1ccncc1 [pyridine] + CCC(C)=O
refractive index
Details | 288.15 K | 293.15 K | 298.15 K | 303.15 K | 308.15 K | 313.15 K | 318.15 K | 323.15 K | 328.15 K | 333.15 K
x1 = 0.1006 | 1.39357 | 1.39094 | 1.3883 | 1.38577 | 1.38311 | 1.38031 | 1.37775 | 1.37505 | 1.37234 | 1.36942
x1 = 0.2019 | 1.40586 | 1.40321 | 1.40056 | 1.39791 | 1.39527 | 1.3926 | 1.38992 | 1.38721 | 1.38453 | 1.38158
x1 = 0.3002 | 1.41813 | 1.41548 | 1.41282 | 1.41015 | 1.40751 | 1.40483 | 1.40214 | 1.39946 | 1.39666 | 1.39394
x1 = 0.4004 | 1.43104 | 1.42836 | 1.42568 | 1.42298 | 1.4203 | 1.4176 | 1.41489 | 1.41218 | 1.40942 | 1.40669
x1 = 0.4999 | 1.44407 | 1.44138 | 1.43868 | 1.43597 | 1.43325 | 1.43052 | 1.42779 | 1.42502 | 1.42228 | 1.41944
x1 = 0.597 | 1.45674 | 1.45401 | 1.4513 | 1.44857 | 1.44585 | 1.44311 | 1.44039 | 1.43765 | 1.43488 | 1.43213
x1 = 0.6998 | 1.4705 | 1.46776 | 1.46502 | 1.46227 | 1.45952 | 1.45678 | 1.45404 | 1.4513 | 1.44853 | 1.44586
x1 = 0.7945 | 1.48331 | 1.48055 | 1.47779 | 1.47504 | 1.47226 | 1.4695 | 1.46675 | 1.46402 | 1.46124 | 1.45866
x1 = 0.8962 | 1.49734 | 1.49455 | 1.49176 | 1.48899 | 1.4862 | 1.48343 | 1.48066 | 1.47793 | 1.47513 | 1.4726
x1 = 1 | 1.51204 | 1.50923 | 1.50636 | 1.50355 | 1.50076 | 1.49796 | 1.49522 | 1.49245 | 1.48962 | 1.48708
